ChEMBL document CHEMBL5584201, “Amphiphilic tribasic galactosamines potentiate rifampicin in Gram-negative bacteria at low Mg++/Ca++concentrations” (Bioorg Med Chem Lett, 2024)

Experiments:
Assay type in all cases: functional
Pseudomonas aeruginosa [1] = assay: Antibacterial activity against Pseudomonas aeruginosa PA262 in high concentration of Ca++ and Mg++ containing media by Mueller-Hinton broth based assay
Acinetobacter baumannii [2] = assay: Potentiation of rifampicin-induced antibacterial activity against Acinetobacter baumannii 92247 assessed as rifampicin MIC at 16 microg/ml in high concentration of Ca++ and Mg++ containing media by Mueller-Hinton broth based assay; settings: dose 16 µg/ml
Escherichia coli [3] = assay: Potentiation of rifampicin-induced antibacterial activity against Escherichia coli clinical isolate 107115 assessed as fold change in rifampicin MIC at 1/4 MIC in low salt containing media by Mueller-Hinton broth based assay
Acinetobacter baumannii [4] = assay: Potentiation of rifampicin-induced antibacterial activity against multidrug resistant Acinetobacter baumannii clinical isolate 92247 assessed as fold change in rifampicin MIC at 1/4 MIC in low salt containing media by Mueller-Hinton broth based assay
Escherichia coli [5] = assay: Potentiation of rifampicin-induced antibacterial activity against Escherichia coli ATCC 25922 assessed as fold change in rifampicin MIC at 2 to 8 microg/ml in high concentration of Ca++ and Mg++ containing media by Mueller-Hinton broth based assay; settings: dose 2-8 µg/ml
Acinetobacter baumannii [6] = assay: Potentiation of rifampicin-induced antibacterial activity against multidrug resistant Acinetobacter baumannii AB031 assessed as fold change in rifampicin MIC at 1/4 MIC in low salt containing media by Mueller-Hinton broth based assay
Acinetobacter baumannii [7] = assay: Antibacterial activity against Acinetobacter baumannii ATCC 17978 in low salt containing media by Mueller-Hinton broth based assay
Acinetobacter baumannii [8] = assay: Potentiation of rifampicin-induced antibacterial activity against Acinetobacter baumannii ATCC 17978 assessed as fold change in rifampicin MIC at 16 microg/ml in high concentration of Ca++ and Mg++ containing media by Mueller-Hinton broth based assay; settings: dose 16 µg/ml
Acinetobacter baumannii [9] = assay: Potentiation of rifampicin-induced antibacterial activity against multidrug resistant Acinetobacter baumannii AB027 assessed as fold change in rifampicin MIC at 1/4 MIC in low salt containing media by Mueller-Hinton broth based assay
Pseudomonas aeruginosa [10] = assay: Potentiation of rifampicin-induced antibacterial activity against Pseudomonas aeruginosa PA262 assessed as fold change in rifampicin MIC at 2 to 8 microg/ml in high concentration of Ca++ and Mg++ containing media by Mueller-Hinton broth based assay; settings: dose 2-8 µg/ml
Acinetobacter baumannii [11] = assay: Potentiation of rifampicin-induced antibacterial activity against Acinetobacter baumannii ATCC 17978 assessed as fold change in rifampicin MIC at 2 to 8 microg/ml in high concentration of Ca++ and Mg++ containing media by Mueller-Hinton broth based assay; settings: dose 2-8 µg/ml
Pseudomonas aeruginosa [12] = assay: Potentiation of rifampicin-induced antibacterial activity against Pseudomonas aeruginosa PA262 assessed as rifampicin MIC at 2 to 8 microg/ml in high concentration of Ca++ and Mg++ containing media by Mueller-Hinton broth based assay; settings: dose 2-8 µg/ml

SMILES: CCCCCCCCO[C@@H]1O[C@H](CN)[C@H](N)[C@H](OCc2ccc3ccccc3c2)[C@H]1N
- MIC (Pseudomonas aeruginosa [1]): > 128 µg/mL
- MIC (Acinetobacter baumannii [2]): 16 µg/mL
- fold change (FC) (Escherichia coli [3]): 64
- fold change (FC) (Acinetobacter baumannii [4]): 64
- fold change (FC) (Escherichia coli [5]): 1
- fold change (FC) (Acinetobacter baumannii [6]): 64
- MIC (Acinetobacter baumannii [7]): 16 µg/mL
- fold change (FC) (Acinetobacter baumannii [8]): 1
- fold change (FC) (Acinetobacter baumannii [9]): 64
- fold change (FC) (Pseudomonas aeruginosa [10]): 1
- fold change (FC) (Acinetobacter baumannii [11]): 1
- MIC (Pseudomonas aeruginosa [12]): 8 µg/mL
